Columns and labels:
PD-1/PD-L1 = molecular target: T1, PD-1/PD-L1 (Homo sapiens, UniProt Q9NZQ7); test: PD-1/PD-L1 binding assay (HTRF, PPI-HTRF); details: HTRF PD1/PD-L1 binding assay kit; 10 nM Tag1-PD-L1; 25° C.
T1 construct: purchased Cisbio 63ADK000CPDPEB
Procedure, shortened: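 HTRF binding assay: compound was mixed with tagged proteins at final concentrations of 10 nM Tag1-PD-L1 and 2 nM PD1 for 15 min at 25 °C. Anti-Tag1-Eu³⁺ and anti-Tag2-XL665 antibodies were then added for 16 h at 25 °C. IC50 was derived from the 665/620 nm emission ratio.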

[1] = test system: Jurkat T(PD1 Luc-)/CHOK1(PDL-1); test: Jurkat T(PD1 Luc-)/CHOK1(PDL-1) cell experiment (luciferase reporter); type: cell-based; details: CHO/PD-L1-OKT3 cells co-cultured with Jurkat/PD1-NFAT-Luc cells for 6 hours; Bio-Glo luciferase signal
Procedure, shortened: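 CHO/PD-L1-OKT3 cells plated 24 h at 37 °C, then compound in DMSO (1 uM final) added together with Jurkat/PD1-NFAT-Luc cells and co-cultured 6 h. Luciferase signal read with Bio-Glo; EC50 by non-linear regression.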

T1 sequence (Q9NZQ7 19-238 limits assumed): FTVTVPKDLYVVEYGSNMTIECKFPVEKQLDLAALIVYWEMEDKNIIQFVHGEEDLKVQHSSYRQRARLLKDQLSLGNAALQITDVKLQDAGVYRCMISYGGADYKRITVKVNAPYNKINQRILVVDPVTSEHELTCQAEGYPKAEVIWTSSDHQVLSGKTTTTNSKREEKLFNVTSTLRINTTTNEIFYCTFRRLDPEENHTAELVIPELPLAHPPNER

| IC50 (PD-1/PD-L1) | SMILES | EC50 [1] |
| --- | --- | --- |
| 1 nM | COc1cc(/C=C/c2cccc(-c3cccc(NC(=O)c4ccc(CN5CC[C@@H](O)C5)cn4)c3C)c2C)c(C(F)(F)F)cc1CN1CCC(C)(C(=O)O)C1 (some centres unmarked) [Z-103] | 19 nM |
| 1 nM | COc1cc(C(=O)Nc2cccc(-c3cccc(/C=C/c4cc(OC)c(CN5CCC[C@H]5C(=O)O)cc4C(F)(F)F)c3C)c2C)ncc1CNCCO [Z-112] | 25 nM |
| 2 nM | COc1cc(/C=C/c2cccc(-c3cccc(-c4nc5cc(CN6CC[C@@H](C(=O)O)C6)cc(C#N)c5o4)c3C)c2C)c(C(F)(F)F)cc1CN[C@@H](C)CO [Z-34, (R)-1-((7-cyano-2-(3′-((E)-4-((((S)-1-hydroxypropan-2-yl)amino)methyl)-5-methoxy-2-(trifluoromethyl)styryl)-2,2′-dimethyl-[1,1′-biphenyl]-3-yl)benzo[d]oxazol-5-yl)methyl)pyrrolidine-3-carboxylic Acid] | 79 nM |
| 1 nM | Cc1cc(/C=C/c2nccc(-c3cccc(-c4nc5cc(CN6CC[C@@H](O)C6)cc(C#N)c5o4)c3C)c2C#N)c(C(F)(F)F)cc1CN1CC[C@@H](C(=O)O)C1 [Z-51] | 56 nM |
| 2 nM | COc1cc(/C=C/c2cccc(-c3cccc(NC(=O)c4ccc(CN5CC[C@@H](O)C5)cn4)c3Cl)c2Cl)c(C(F)(F)F)cc1CN1CC[C@@H](C(=O)O)C1 [Z-93] | 8 nM |
| 2 nM | COc1cc(/C=C/c2cccc(-c3cccc(-c4nc5cc(CN[C@@H](C)CO)cc(C#N)c5o4)c3C)c2C)c(C(F)(F)F)cc1CN1CCCC[C@H]1C(=O)O [Z-41, (S)-1-(4-((E)-2-(3′-(7-cyano-5-((((S)-1-hydroxypropan-2-yl)amino)methyl)benzo[d]oxazol-2-yl)-2,2′-dimethyl-[1,1′-biphenyl]-3-yl)vinyl)-2-methoxy-5-(trifluoromethyl)benzyl) piperidine-2-carboxylic Acid] | 109 nM |
| 1 nM | COc1cc(/C=C/c2cccc(-c3cccc(NC(=O)c4ccc(CN5CC[C@@H](O)C5)cn4)c3C)c2C)c(C(F)(F)F)cc1CN1CCCC[C@H]1C(=O)O [Z-102] | 9 nM |
| ≤ 1 nM | COc1cc(C(=O)Nc2cccc(-c3cccc(/C=C/c4cc(OC)c(CN5CC[C@@H](C(=O)O)C5)cc4C(F)(F)F)c3Cl)c2C)ncc1CN1CC[C@@H](O)C1 [Z-140] | 7 nM |
| 1 nM | COc1cc(/C=C/c2cccc(-c3cccc(-c4nc5cc(CNCCO)cc(C#N)c5o4)c3C)c2C)c(C(F)(F)F)cc1CN1CCCC[C@H]1C(=O)O [Z-40] | 108 nM |
| 1 nM | COc1cc(/C=C/c2nccc(-c3cccc(NC(=O)c4ccc(CN5CC[C@@H](O)C5)cn4)c3C)c2C#N)c(C(F)(F)F)cc1CN1CC[C@@H](C(=O)O)C1 [Z-74] | 51 nM |
| 1 nM | COc1cc(/C=C/c2cccc(-c3cccc(NC(=O)c4ccc(CN5CC[C@@H](O)C5)cn4)c3Cl)c2C)c(C(F)(F)F)cc1CN1CCCC[C@H]1C(=O)O [Z-82] | 29 nM |
| ≤ 1 nM | CNc1cc(C(=O)Nc2cccc(-c3cccc(/C=C/c4cc(OC)c(CN5CCC(C(=O)O)C5)cc4C(F)(F)F)c3C)c2C)ncc1CN1CC[C@@H](O)C1 (some centres unmarked) [Z-141] | 74 nM |
| 1 nM | COc1cc(/C=C/c2ccnc(-c3cccc(-c4nc5cc(CN6CC[C@@H](O)C6)cc(C#N)c5o4)c3C)c2C#N)c(C(F)(F)F)cc1CN1CC[C@@H](C(=O)O)C1 [Z-49] | 78 nM |
| 1 nM | COc1cc(/C=C/c2cccc(-c3cccc(NC(=O)c4nc5c(n4C)CCN(CCO)C5)c3Cl)c2C)c(C(F)(F)F)cc1CN1CCCC[C@H]1C(=O)O [Z-113, (S, E)-1-(4-(2-(2′-chloro-3′-(5-(2-hydroxyethyl)-1-methyl-4,5,6,7-tetrahydro-1H-imidazo [4,5-c]pyridine-2-carboxamido)-2-methyl-[1,1′-biphenyl]-3-yl)vinyl)-2-methoxy-5-(trifluoromethyl)benzyl) piperidine-2-carboxylic Acid] | 66 nM |
| 1 nM | COc1cc(C(=O)Nc2cccc(-c3cccc(/C=C/c4cc(OC)c(CN5CC[C@@H](C(=O)O)C5)cc4C(F)(F)F)c3C)c2C)ncc1CN1CC(CO)C1 [Z-114, (R,E)-1-(4-(2-(3′-(5-((3-(hydroxymethyl)azetidin-1-yl)methyl)-4-methoxypicolinamido)-2,2′-dimethyl-[1,1′-biphenyl]-3-yl)vinyl)-2-methoxy-5-(trifluoromethyl)benzyl)pyrrolidine-3-carboxylic Acid] | 54 nM |
| < 1 nM | COc1cc(/C=C/c2cccc(-c3cccc(NC(=O)c4ccc(CN5CC[C@@H](O)C5)cn4)c3Cl)c2F)c(C(F)(F)F)cc1CN1CC[C@@H](C(=O)O)C1 [Z-99] | 35 nM |

Source: patent US20210386721A1, “SUBSTITUTED PHENYLPROPENYL PYRIDINE DERIVATIVES, THEIR PREPARATION AND PHARMACEUTICAL APPLICATIONS” (SHANGHAI HAIYAN PHARMACEUTICAL TECHNOLOGY CO., LTD., priority 2019, published 2021)
